Test system: gastric cancer cell lines, SNU001, SNU601, and SNU668
Experiment: Reactivation analysis of silenced genes by drug treatment (RT-PCR)
Assay type: cell-based, human
Details: for number of selected genes restored (summary): 5-aza and/or TSA treatment, of 26 epigenetic targets; for number of selected genes restored in the corresponding inactivated cells: after 5-Aza-dC and/or TSA treatment, gene-specific or cell-specific mode
Experimental: To examine the correspondence between NotI-methylation and gene silencing at the neighboring region of the NotI site, RT-PCR analysis was performed for each selected gene with RNA of gastric cancer cell line. Reverse transcription using 5 μg of DNase-treated RNA was done using Superscript II reverse transcriptase (Invitrogen) in a reaction volume of 20 μL. One μL of the reverse transcription reaction was used for amplification using Platinum Taq DNA polymerase (Invitrogen). Amplification was done as follows: denaturation at 94° C. for 30 s, annealing at a primer specific annealing temperature for 30 s and extension at 72° C. for 45 s. All reactions were performed on a GeneAmp PCR System 9700 (Perkin-Elmer Corp.). Five μL of the PCR product were run on a 0.8% agarose gel and visualized by EtBr staining. GAPDH gene was used as a control for comparison of the amount of reverse transcribed template in each sample.
Three gastric cancer cell lines, SNU001, SNU601, and SNU668, were treated with 5-aza-2′-deoxycytidine (5-Aza-dC; Sigma) as a demethylating agent and 5-Aza-dC and trichostatin A (TSA; Sigma) as a HDAC inhibitor to examine the restoring of selected genes in those cells. Each cell was plated at a density of 1×10^5 cells/100-mm dish and cultures for 24 h, followed by 72 h culture with 1 μM 5-Aza-dC. Other cells were also followed by 24 h culture with 250 nM TSA or 72 h 5-Aza-dC-treated cells for another 24 h. RNA was prepared and RT-PCR analysis was then performed using gene-specific primer set as described above. GAPDH gene was also used as a control.
For the selected 22 genes, reactivation analysis was examined in three gastric cancer cell lines by 5-Aza-dC and/or TSA treatment.

SMILES | number of selected genes restored (summary) | number of selected genes restored in the corresponding inactivated cells | restoration of expression of POPDC3, NACM2, PRKD1 and AMPD3 (three gastric cancer cell lines, 1 μM 5-Aza-dC 72 h, RT-PCR, restored only by 5-Aza-dC)
CC(/C=C/C(=O)NO)=C\[C@@H](C)C(=O)c1ccc(N(C)C)cc1 [TSA, trichostatin A] | 23 of 26 | 22 genes | –
Nc1ncn([C@H]2C[C@H](O)[C@@H](CO)O2)c(=O)n1 [5-Aza-dC, 5-aza-2′-deoxycytidine] | 23 of 26 | 22 genes | restored in two or three corresponding inactivated cells

— US20100075334A1, “METHYLATION BIOMARKER FOR EARLY DETECTION OF GASTRIC CANCER” (priority 2007, published 2010)
